This note sets out measurements from patent US20110207655A1, “CYCLIC DEPSIPEPTIDE COMPOUND AND USE THEREOF” (Astellas Pharma Inc., priority 2008, published 2011).

Starred links: 1 amine or outer side, 2 acyl side, 3 side chain; linkers in the order of their positions; H or OH if unused. Positions of bridges follow the written chain, without caps; N, C: chain ends. Non-standard residues stand in square brackets, D forms with d. Residues, ends and D or L forms follow the SMILES beside them. *: point of attachment. X8 = CC(=O)NC(C(=O)OC(C(C)C)C(N[*:1])C(=O)[*:2])C(O)C(C)C; X2 = CSCC(O)C(NC(C)=O)C(=O)OC(C(C)C)C(N[*:1])C(=O)[*:2]; X3 = CC(C)C(O[*:3])C(N[*:1])C(=O)[*:2]; X7 = O=C(C(Cc1ccccc1F)O[*:1])[*:2]; X4 = CCCC(=O)NC(C(=O)*)C(O)C(C)C; X5 = CSCC(=O)NC(C(=O)*)C(O)C(C)C; X6 = CCC(=O)NC(C(=O)*)C(O)C(C)C; PhLac = O=C(O)[CH](O)Cc1ccccc1; NMeT = CN[CH](C(=O)O)[CH](C)O; NMeA = CN[CH](C)C(=O)O; NMeDha = C=C(NC)C(=O)O

For one experiment, the system named is Gq/11. Description: Inhibitory action on Gq/11: LTD4-induced cellular Ca2+ change in CHO cells stably expressing CysLTR2 (FLIPR). Format: cell-based. As to conditions: 10 nM LTD4, maximum Fluo-4 fluorescence intensity, read-out: Gq/11 inhibitory activities (IC50 values). How it is done: The test was carried out according to the method of Non-Patent Citation 3, using a leukotriene receptor CysLTR2 (cysteinyl leukotriene receptor 2), which is known to activate Gq/11. CHO cells stably expressing CysLTR2 were seeded on a 96-well black/clear bottom plate (manufactured by Becton, Dickinson and Company) at 20,000 cells per well, and after 24 hours of seeding, the medium was discarded. Then, Hanks BSS (GIBCO Inc.) including 2 μM Fluo-4, AM (manufactured by Molecular Probe Co.), 0.004% pluronic acid, 1% FBS, 20 mM HEPES, and 2.5 mM probenecid was added thereto at 100 μL per well, followed by incubation at 37° C. for 1 hour. After incubation, the resultant was washed four times with Hanks BSS including 20 mM HEPES, and Hanks BSS including 20 mm HEPES per well was added thereto 100 μL per well. In addition, 50 μL of a test compound that had been diluted with Hanks BSS including 20 mM HEPES to a final concentration from 1×10^−10 M to 1×10^−5 M was added thereto, followed by being left to stand at room temperature for 30 minutes. The change of cellular Ca^2+ concentration after addition of leukotriene D4 (LTD4, manufactured by Cayman Co.), which is a CysLTR2 ligand, was measured over time using an FLIPR (Molecular Device Corp.). 50 μL it of leukotriene D4 that had been diluted with Hanks BSS including 20 mM HEPES to a final concentration of 10 nM at 10 seconds after the initiation of measurement was added thereto, fluorescence intensities were measured every second for 50 seconds and every sixth second for 2 minutes, and a maximum fluorescence intensity during a measurement time of 3 minutes was observed. By plotting the concentrations and the fluorescence intensities of the test compounds, the IC50 values were calculated, which were taken as Gq/11 inhibitory activities.
In the case of `C=C1C(=O)NC(C)C(=O)N(C)C(C)C(=O)NC(C(OC(=O)C(NC(C)=O)C(O)C(C)C)C(C)C)C(=O)N(C)C(C(C)OC)C(=O)OC(C)C(NC(C)=O)C(=O)OC(Cc2ccccc2F)C(=O)N1C` (centres unmarked) [Ref 5] (Ac-T[X7][NMeDha]A[NMeA][X8][NMeT](Me); ester 1-C; configuration not given here), the IC50 amounted to 25 nM.

The experiment is the same for the next values; noted with them: read-out: Gq/11 inhibitory activities (IC50 values), 10 nM LTD4, maximum Fluo-4 fluorescence intensity.
For `C=C1C(=O)NC(C)C(=O)N(C)C(C)C(=O)NC(C(OC(=O)C(NC(=O)CCC)C(O)C(C)C)C(C)C)C(=O)N(C)C(C(C)OC)C(=O)OC(C)C(NC(C)=O)C(=O)OC(Cc2ccccc2)C(=O)N1C` (centres unmarked) [Ex1] (Ac-T[PhLac][NMeDha]A[NMeA][X3](X4)[NMeT](Me); ester 1-C; configuration not given here), the IC50 was 31 nM.

Regarding `C=C1C(=O)NC(C)C(=O)N(C)C(C)C(=O)NC(C(OC(=O)C(NC(C)=O)C(O)C(C)C)C(C)C)C(=O)N(C)C(C(C)O)C(=O)OC(C)C(NC(C)=O)C(=O)OC(Cc2ccccc2)C(=O)N1C` (centres unmarked) [Ex2] (Ac-T[PhLac][NMeDha]A[NMeA][X8][NMeT]; ester 1-C; configuration not given here), the IC50 is 317 nM.

In the case of `C=C1C(=O)NC(C)C(=O)N(C)C(C)C(=O)NC(C(OC(=O)C(NC(C)=O)C(O)CSC)C(C)C)C(=O)N(C)C(C(C)OC)C(=O)OC(C)C(NC(C)=O)C(=O)OC(Cc2ccccc2)C(=O)N1C` (centres unmarked) [Ex3] (Ac-T[PhLac][NMeDha]A[NMeA][X2][NMeT](Me); ester 1-C; configuration not given here), the IC50 is 97 nM.

For the molecule `C=C1C(=O)NC(C)C(=O)N(C)C(C)C(=O)NC(C(OC(=O)C(NC(C)=O)C(O)CSC)C(C)C)C(=O)N(C)C(C(C)OC)C(=O)OC(C)C(NC(C)=O)C(=O)OC(Cc2ccccc2)C(=O)N1C` (centres unmarked) [Ex4] (Ac-T[PhLac][NMeDha]A[NMeA][X2][NMeT](Me); ester 1-C; configuration not given here), the IC50 is 365 nM.

Consider `C=C1C(=O)NC(C)C(=O)N(C)C(C)C(=O)NC(C(OC(=O)C(NC(=O)CC)C(O)C(C)C)C(C)C)C(=O)N(C)C(C(C)OC)C(=O)OC(C)C(NC(C)=O)C(=O)OC(Cc2ccccc2)C(=O)N1C` (centres unmarked) [Ref 2] (Ac-T[PhLac][NMeDha]A[NMeA][X3](X6)[NMeT](Me); ester 1-C; configuration not given here), for which the IC50 stood at 34 nM.

For `C=C1C(=O)NC(C)C(=O)N(C)C(C)C(=O)NC(C(OC(=O)C(NC(=O)CSC)C(O)C(C)C)C(C)C)C(=O)N(C)C(C(C)OC)C(=O)OC(C)C(NC(C)=O)C(=O)OC(Cc2ccccc2)C(=O)N1C` (centres unmarked) [Ref 3] (Ac-T[PhLac][NMeDha]A[NMeA][X3](X5)[NMeT](Me); ester 1-C; configuration not given here), the IC50 was 56 nM.

`COC(C)C1C(=O)OC(C)C(NC(C)=O)C(=O)OC(Cc2ccccc2)C(=O)N(C)C(C)C(=O)NC(C)C(=O)N(C)C(C)C(=O)NC(C(OC(=O)C(NC(C)=O)C(O)C(C)C)C(C)C)C(=O)N1C` (centres unmarked) [Ref 7] (Ac-T[PhLac][NMeA]A[NMeA][X8][NMeT](Me); ester 1-C; configuration not given here): the IC50 was 32 nM.
